Converted amounts (≈) assume the structure as drawn. The source made the active and inactive calls. The rule behind the calls is not given here.
Experiments:
Influenza A virus [1] = test: Antiviral activity against influenza A virus H1N1 assessed as inhibition of viral induced cytopathic effect; type: functional, organism-based
Influenza A virus [2] = test: Antiviral activity against influenza A virus H1N1 assessed as cell viability by cell based MTS assay; type: functional, organism-based
Influenza A virus [3] = test: Antiviral activity against Influenza A virus H3N2 assessed as inhibition of viral induced cytopathic effect; type: functional, organism-based
Influenza A virus [4] = test: Antiviral activity against Influenza A virus H3N2 assessed as cell viability by cell based MTS assay; type: functional, organism-based
Influenza B virus [5] = test: Antiviral activity against influenza B virus assessed as inhibition of viral induced cytopathic effect; type: functional, organism-based
Influenza B virus [6] = test: Antiviral activity against influenza B virus assessed as cell viability by cell based MTS assay; type: functional, organism-based
[7] = Toxicity assessed as increase of ristocetin-induced platelet aggregation; type: cell-based
Bacillus subtilis = test: Antibacterial activity against Bacillus subtilis ATCC 6633 by broth microdilution method; type: functional
Staphylococcus aureus [8] = test: Antibacterial activity against methicillin-[…] Staphylococcus aureus ATCC 33591 by broth microdilution method; type: functional
Staphylococcus aureus [9] = test: Antibacterial activity against methicillin-[…] Staphylococcus aureus ATCC 29213 by broth microdilution method; type: functional
[10] = tested on: Staphylococcus epidermidis; test: Antibacterial activity against biofilm positive Staphylococcus epidermidis ATCC 35984; type: functional
[11] = tested on: Staphylococcus epidermidis; test: Antibacterial activity against Staphylococcus epidermidis by broth microdilution method; type: functional
Enterococcus faecalis [12] = test: Antibacterial activity against vancomycin and teicoplanin-sensitive Enterococcus faecalis ATCC 29212 by broth microdilution method; type: functional
Enterococcus faecalis [13] = test: Antibacterial activity against vancomycin-resistant and teicoplanin-sensitive Enterococcus faecalis ATCC 5129 expressing VanB gene by broth microdilution method; type: functional
Enterococcus faecalis [14] = test: Antibacterial activity against vancomycin and teicoplanin-resistant Enterococcus faecalis 15376 expressing VanA gene by broth microdilution method; type: functional
Platelet = test: Inhibition of ristocetin-induced platelet aggregation at 0.1 mg/ml; type: functional, cell-based

## COC(=O)[C@H]1NC(=O)[C@H]2NC(=O)[C@H](NC(=O)[C@@H]3NC(=O)[C@H]4NC(=O)[C@H](NC(=O)[C@H](n5cc(CO[C@@H]6O[C@@H](C)[C@H](O)[C@@H](O)[C@H]6O)nn5)c5ccc(O)c(c5)Oc5cc4cc(O)c5C)[C@H](O)c4ccc(cc4)Oc4cc3cc(c4O)Oc3ccc(cc3)[C@H]2O)c2ccc(O)c(c2)-c2c(O)cc(O)cc21
Influenza A virus [1]
  EC50: > 100 µM
Influenza A virus [2]
  EC50: > 100 µM
Influenza A virus [3]
  EC50: > 100 µM
Influenza A virus [4]
  EC50: > 100 µM
Influenza B virus [5]
  EC50: > 100 µM
Influenza B virus [6]
  EC50: > 100 µM
[7]
  Activity: Toxic

## COC(=O)[C@@H]1NC(=O)[C@H]2NC(=O)[C@H](NC(=O)[C@@H]3NC(=O)[C@H]4NC(=O)[C@H](NC(=O)[C@H](n5cc(CO[C@@H]6O[C@@H](C)[C@H](OC(C)=O)[C@@H](OC(C)=O)[C@H]6OC(C)=O)nn5)c5ccc(O)c(c5)Oc5cc4cc(O)c5C)[C@H](O)c4ccc(cc4)Oc4cc3cc(c4O)Oc3ccc(cc3)[C@H]2O)c2ccc(O)c(c2)-c2c(O)cc(O)cc21
Bacillus subtilis
  MBC: 32 µg/mL (≈ 20.9 µM)
  MIC: 32 µg/mL (≈ 20.9 µM)
Staphylococcus aureus [8]
  MBC: 32 µg/mL (≈ 20.9 µM)
  MIC: 16 µg/mL (≈ 10.5 µM)
Staphylococcus aureus [9]
  MBC: 32 µg/mL (≈ 20.9 µM)
  MIC: 16 µg/mL (≈ 10.5 µM)
[10]
  MBC: 4 µg/mL (≈ 2.62 µM)
  MIC: 4 µg/mL (≈ 2.62 µM)
[11]
  MBC: 8 µg/mL (≈ 5.23 µM)
  MIC: 4 µg/mL (≈ 2.62 µM)
Enterococcus faecalis [12]
  MBC: 256 µg/mL (≈ 167 µM)
  MIC: 32 µg/mL (≈ 20.9 µM)
Enterococcus faecalis [13]
  MBC: 256 µg/mL (≈ 167 µM)
  MIC: 128 µg/mL (≈ 83.7 µM)
Enterococcus faecalis [14]
  MBC: 256 µg/mL (≈ 167 µM)
  MIC: 16 µg/mL (≈ 10.5 µM)
Influenza A virus [1]
  EC50: > 100 µM
Influenza A virus [2]
  EC50: > 100 µM
Influenza A virus [3]
  EC50: > 100 µM
Influenza A virus [4]
  EC50: > 100 µM
Influenza B virus [5]
  EC50: > 100 µM
Influenza B virus [6]
  EC50: > 100 µM

## COC(=O)[C@@H]1NC(=O)[C@H]2NC(=O)[C@H](NC(=O)[C@@H]3NC(=O)[C@H]4NC(=O)[C@H](NC(=O)[C@H](n5cc(CO[C@H]6O[C@H](CO)[C@@H](O)[C@H](O)[C@@H]6O)nn5)c5ccc(O)c(c5)Oc5cc4cc(O)c5C)[C@H](O)c4ccc(cc4)Oc4cc3cc(c4O)Oc3ccc(cc3)[C@H]2O)c2ccc(O)c(c2)-c2c(O)cc(O)cc21
Bacillus subtilis
  MBC: 4 µg/mL (≈ 2.82 µM)
  MIC: 4 µg/mL (≈ 2.82 µM)
Staphylococcus aureus [8]
  MBC: 16 µg/mL (≈ 11.3 µM)
  MIC: 4 µg/mL (≈ 2.82 µM)
Staphylococcus aureus [9]
  MIC: 2 µg/mL (≈ 1.41 µM)
[10]
  MBC: 8 µg/mL (≈ 5.64 µM)
  MIC: 4 µg/mL (≈ 2.82 µM)
[11]
  MBC: 8 µg/mL (≈ 5.64 µM)
  MIC: 4 µg/mL (≈ 2.82 µM)
Enterococcus faecalis [12]
  MBC: 256 µg/mL (≈ 180 µM)
  MIC: 8 µg/mL (≈ 5.64 µM)
Enterococcus faecalis [13]
  MBC: 256 µg/mL (≈ 180 µM)
  MIC: 16 µg/mL (≈ 11.3 µM)
Enterococcus faecalis [14]
  MBC: 64 µg/mL (≈ 45.1 µM)
  MIC: 16 µg/mL (≈ 11.3 µM)
Influenza A virus [1]
  EC50: 10 µM
Influenza A virus [2]
  EC50: 22 µM
Influenza A virus [3]
  EC50: ≥ 45 µM
Influenza A virus [4]
  EC50: ≥ 46 µM
Influenza B virus [5]
  EC50: ≥ 45 µM
Influenza B virus [6]
  EC50: ≥ 50 µM
Platelet
  inhibition: inactive

## COC(=O)[C@@H]1NC(=O)[C@H]2NC(=O)[C@H](NC(=O)[C@@H]3NC(=O)[C@H]4NC(=O)[C@H](NC(=O)[C@H](n5cc(CO[C@H]6O[C@H](COC(C)=O)[C@@H](O[C@H]7O[C@H](COC(C)=O)[C@@H](OC(C)=O)[C@H](OC(C)=O)[C@H]7OC(C)=O)[C@H](OC(C)=O)[C@H]6OC(C)=O)nn5)c5ccc(O)c(c5)Oc5cc4cc(O)c5C)[C@H](O)c4ccc(cc4)Oc4cc3cc(c4O)Oc3ccc(cc3)[C@H]2O)c2ccc(O)c(c2)-c2c(O)cc(O)cc21
Bacillus subtilis
  MBC: 8 µg/mL (≈ 4.27 µM)
  MIC: 8 µg/mL (≈ 4.27 µM)
Staphylococcus aureus [8]
  MBC: 4 µg/mL (≈ 2.13 µM)
  MIC: 1 µg/mL (≈ 0.533 µM)
Staphylococcus aureus [9]
  MBC: 4 µg/mL (≈ 2.13 µM)
  MIC: 1 µg/mL (≈ 0.533 µM)
[10]
  MBC: 8 µg/mL (≈ 4.27 µM)
  MIC: 4 µg/mL (≈ 2.13 µM)
[11]
  MBC: 16 µg/mL (≈ 8.53 µM)
  MIC: 4 µg/mL (≈ 2.13 µM)
Enterococcus faecalis [12]
  MBC: 256 µg/mL (≈ 137 µM)
  MIC: 4 µg/mL (≈ 2.13 µM)
Enterococcus faecalis [13]
  MBC: 256 µg/mL (≈ 137 µM)
  MIC: 8 µg/mL (≈ 4.27 µM)
Enterococcus faecalis [14]
  MBC: 256 µg/mL (≈ 137 µM)
  MIC: 2 µg/mL (≈ 1.07 µM)
Influenza A virus [1]
  EC50: > 100 µM
Influenza A virus [2]
  EC50: > 100 µM
Influenza A virus [3]
  EC50: > 100 µM
Influenza A virus [4]
  EC50: > 100 µM
Influenza B virus [5]
  EC50: > 100 µM
Influenza B virus [6]
  EC50: > 100 µM
